# Test results as given in EP3771719A1, “A PEPTIDE BINDING TO TAU-PROTEIN” (Hochschule für angewandte Wissenschaften Fachhochschule …, priority 2019, dated 2021).
# Non-standard residues stand in square brackets, D forms with d. No end group written: not given here.
# How the values were obtained:
# tau monomers = test: ELISA binding of FAM-labeled peptides to tau monomers; conditions: plate coated with 20 µg/ml tau monomers, FAM-labeled peptide in increasing concentrations, absorbance at 450 nm
# Description: (§1) Peptides were used that had been labeled with a FAM (=5/6-carboxyfluorescein) at the C-terminus. The peptides used were MM2 (= LTPHKHHKHLHA as L-enantiomer = SEQ ID NO: 6) and MM3 (SEQ ID NO: 1), to which a Lys (FAM)-NH2-residue had been attached at the C-terminus, respectively. The wells of a 96-well plate were coated with 20 µg/ml monomeric tau-protein or tau-fibrils and were incubated for 1h. After washing three times with PBS-T (phosphate-buffered saline with 0.1 % tween), the free binding sites were blocked for over a period of 1 hour. The respective peptides MM2-Lys(FAM)-NH2 and MM3-Lys(FAM)-NH2 were added (1 µg/ml, 5 µg/ml, 10 µg/ml, 20 µg/ml) and incubated for 1h. A specific anti-FITC-HRP antibody (anti-fluorescein-isothiocyanate-horseradish-peroxidase) was added in 1:1000 dilution and was incubated for 1h. Thereafter, TMB-substrate was added and incubated for 20 min. After […] of enzyme reaction by addition of 20% sulfuric acid, the absorption at 450 nm was determined. Measurements were performed in triplicate and the average values of the measured absorption of these triplicate samples as well as their standard deviations are shown in figure 1.
# (§2) The binding affinity of MMD2 and MMD3 was tested using ELISA. […] The detection was done with anti-FAM HRP antibodies and absorbance was measured at 450 nm. […]
# PHF6* fibrils = test: ELISA binding of FAM-labeled peptide to PHF6* fibrils; conditions: plate coated with 50 µg/ml PHF6* fibrils, FAM-labeled peptide 10, 20, 50 µg/ml, absorption at 450 nm
# Description: As used herein, "PHF6*-fibrils" are fibrils comprising the D-enantiomeric version of tau-peptide VQIINK (SEQ ID NO: 5). The wells of a 96-well plate were coated with 50 µg/ml PHF6*-fibrils and were incubated for 1h. After washing of wells three times with PBS-T (phosphate buffer saline with 0.1 % tween), the free binding sites were blocked for 1 hour. Peptide MMD3-Lys(FAM)-NH2 was added (10 µg/ml, 20 µg/ml and 50 µg/ml) and incubated for 1 h. A specific anti-FITC-HRP-antibody was added at a dilution of 1:1000 and incubated for 1h. Thereafter, TMB-substrate solution was added and incubated for 20 min. After termination of the enzyme reaction by additional 20 % sulfuric acid, absorption at 450 nm was measured. The absorption of the negative control (buffer only) was substracted. Triplicate measurements were performed, at the average values of the measured absorptions of the different samples are shown as well as their respective standard deviations.
# To evaluate the binding properties of MMD3 to PHF6* fibrils, ELISA was performed with FAM-labeled version of the peptide. […] The peptide was added in an increasing concentration, the bound peptide was detected with anti-FAM antibodies. After adding the substrate, the absorption at 450 nm, which represents the binding affinities, was measured.
# PHF6* = test: Thioflavin T test of PHF6* aggregation; format: biochemical; conditions: 1000 µM peptide, 100 µM PHF6*, 10 µM thioflavin T, RT, ThT fluorescence monitored over 30 h
# Description: PHF6*-fibrils are fibrils comprising the D-enantiomeric version of tau-peptide VQIINK (SEQ ID NO: 5). Peptides MMD3 and MMD3rev were diluted in sodium phosphate buffer to 1000 µM, and 100 µM PHF6*-solution and 10 µM thioflavin T were added. 100 µM PHF6* and 10 µM thioflavin in Napi-buffer was used as positive control. The negative control was 10 µM thioflavin T in Napi-buffer only. The samples were pipetted into a black 96-well µclear flat-bottom plate and incubated for 30 h,the relative fluorescence (excitation = 440 nm and emission = 480 nm) was determined. Triplicate measurements were performed for each sample.
# To test whether MMD3 and MMD3rev reduce PHF6* fibril formation, 1000 µM from the respective peptides were incubated with 100 µM PHF6* at RT, as positive control PHF6* was incubated alone. The relative fluorescence of THT was monitored over 30 h.
# tau-protein = test: ThT aggregation assay of tau-protein with heparin; format: biochemical; conditions: 24 µM tau, 6 µM heparin, 36 h
# Description: A ThT-aggregation assay of tau was performed for quantifying the relative content of fibrils in the presence of peptides and heparin (6 µM). The concentration of tau-protein was 24 µM, the peptides were added at a ratio of 1:5 and 1:10 (tau-protein:peptide). The fluorescence measured of 24 µM tau-protein after incubation for 36h was arbitrarily set to be 100%, and the measured values and standard deviations of the other incubations are indicated as percentage proportions of this maximum value.
# A ThT-aggregation assay of tau was performed for quantifying the relative content of fibrils in the presence of peptides and heparin (6 µM). Here, the D-enantiomers of the peptides and their retro-inverso-versions are used. "retro-inverso-version" as used herein, refers to a sequence wherein the amino acid sequence of one peptide, as read from its N-terminus to its C-terminus, has been reversed, such that the N-terminus and C-terminus of the peptide sequence have been inverted. The concentration of tau-protein was 24 µM, and the peptides MMD2 and MMD2rev were added at a ratio of 1:10. The peptides MMD3 and MMD3rev were added at a ratio of 1:5 and 1:10 (tau-protein:peptide). The fluorescence of tau-protein at 24 µM after an incubation of 36 h was arbitrarily set to be 100% and the measured values and standard deviations of the other incubations are indicated as percentage proportions of this maximum value.
# To test the ability of the L-synthesized peptides to inhibit the aggregation of tau in vitro, thioflavin assays were performed. The peptides were added to the aggregation mix in a molar ratio of 1:5 and/or 1:10 (tau:peptide), respectively. As positive control, tau was incubated with heparin without addition of peptides, negative controls were tau alone with THT and buffer including THT. The relative fluorescence of the positive control was set to be 100% after 36 h of incubation and the relative fluorescence of the samples was normalized to the positive control.
# To investigate the potential of the selected D-peptides MMD2, MMD2rev, MMD3 and MMD3rev to inhibit fibrillization of full-length tau, thioflavin fluorescence assays were performed. Tau aggregation was initiated by addition heparin to tau protein in a concentration of 24 µM, the mixtures were incubated in absence or presence of the respective peptide in a molar ratio of 1:10, in case of MMD2 as well as MMD2rev, and in molar ratio 1:10 and 1:5, in case of MMD3 and MMD3rev. After 36 hours of incubation, the fluorescence of the tau and heparin control sample reached a saturation level, and the value of fluorescence was set to 100%. […] MMD2 reduce the aggregation of tau to about 90% and MMD2rev reduce the aggregation to about 70%. […] The inventors observed also that ThT fluorescence decreased with increasing concentration of the MMD3 and MMD3rev signifying a robust dose-dependent inhibition of full-length tau aggregation.
# tau fibrils = test: ELISA binding of FAM-labeled peptides to tau fibrils; conditions: plate coated with 20 µg/ml tau fibrils, FAM-labeled peptide in increasing concentrations, absorbance at 450 nm
# Description: as §1, §2
Substance,binding to tau monomers (tau monomers),binding to PHF6* fibrils (PHF6* fibrils),inhibition of PHF6* fibril formation (PHF6*),"aggregation of tau (relative ThT fluorescence, positive control tau + heparin = 100%) (tau-protein; molar ratio 1:5 (tau:peptide))","aggregation of tau (relative ThT fluorescence, positive control tau + heparin = 100%) (tau-protein; molar ratio 1:10 (tau:peptide))",binding to tau fibrils (tau fibrils)
dplkarhtsvwy ([dD][dP][dL][dK][dA][dR][dH][dT][dS][dV][dW][dY]) [MMD3],binding could be demonstrated,bound to PHF6* fibrils in concentration-dependent manner,did indeed inhibit the formation of PHF6* fibrils,inhibited formation of tau aggregates significantly,inhibited formation of tau aggregates significantly,binding could be demonstrated
ywvsthraklpd ([dY][dW][dV][dS][dT][dH][dR][dA][dK][dL][dP][dD]) [MMD3rev],–,–,did indeed inhibit the formation of PHF6* fibrils,inhibited formation of tau aggregates significantly,inhibited formation of tau aggregates significantly,–
"LTPHKHHKHLHA [MM2, reference compound]",–,–,–,about 50%,nearly complete inhibition,–
"ahlhkhhkhptl (AHLHKHHKHPTL; all D-amino acids) [MMD2rev, reference compound]",–,–,–,–,about 70%,–
"ltphkhhkhlha [MMD2, reference compound]",binding could be demonstrated,–,–,–,about 90%,binding could be demonstrated
DPLKARHTSVWY [MM3],–,–,–,significantly inhibiting tau fibrils formation,significantly inhibiting tau fibrils formation,–
